The structures appear in SMILES notation.

Data on 17 compounds can be found in ChEMBL document CHEMBL1151606, “Relationship of structure of bridged (2,6-dimethyl-4-pyridinyl)quinolones to mammalian topoisomerase II inhibition” (Bioorg Med Chem Lett, 1993).

The test system of one test is Mus musculus. The test can be described thus: Tested for the increased life span (ILS) in murine leukemia model (in which P388 administered intraperitoneally), at a concentration of 1014 mg/kg. It is filed as functional. The following applies: P388, ip, route intraperitoneal.
Turning to `Cc1cc(-c2c(F)cc3c(=O)c(C(=O)O)cn4c3c2SC[C@@H]4C)cc(C)n1`, the ILS at 1014 mg/kg was 90%.

The test system of a further test is Mus musculus. The test can be described thus: Tested for the increased life span (ILS) in murine leukemia model (in which P388 administered intraperitoneally), at a concentration of 180 mg/kg. The class given is functional. The following applies: P388, ip, route intraperitoneal.
`COc1cc([C@@H]2c3cc4c(cc3C(O[C@@H]3O[C@@H]5CO[C@@H](C)O[C@H]5[C@H](O)[C@H]3O)C3COC(=O)[C@@H]32)OCO4)cc(OC)c1O` (single isomer, unassigned) [ETOPOSIDE] showed an ILS at 180 mg/kg of 220%.

In a further test the target is DNA topoisomerase II (Homo sapiens, UniProt P11388+Q02880). The test can be described thus: Tested for inhibitory activity against Topoisomerase II isolated from HeLa cells by using SDS-K+ precipitation method. The class given is cell-based.
Settings: not given
Turning to `Cc1cc(-c2c(F)cc3c(=O)c(C(=O)O)cn4c3c2OC[C@@H]4C)cc(C)n1`, the EC50 amounted to 31 µM.

`Cc1cc(-c2ccc3c(=O)c(C(=O)O)cn4c3c2OC[C@@H]4C)cc(C)n1` registered a concentration giving a half-maximal response (EC50) above 290 µM.

Take `C[C@H]1COc2c(-c3ccc4cnccc4c3)c(F)cc3c(=O)c(C(=O)O)cn1c23`: the EC50 stood at 58 µM.

Compound `CCn1cc(C(=O)O)c(=O)c2cc(F)c(-c3cc(C)nc(C)c3)cc21` showed an EC50 above 570 µM.

`Cc1cc(-c2c(F)cc3c(=O)c(C(=O)O)cn4c3c2SC[C@@H]4C)cc(C)n1` returned an EC50 of 9.4 µM.

Regarding `Cc1cc(-c2c(F)cc3c(=O)c(C(=O)O)cn4c3c2[S+]([O-])C[C@@H]4C)cc(C)n1` (stereo partly drawn), the EC50 is 62 µM.

As for `Cc1cc(-c2c(F)cc3c(=O)c(C(=O)O)cn4c3c2NC[C@@H]4C)cc(C)n1`, the EC50 was found to be 730 µM.

`Cc1cc(-c2c(F)cc3c(=O)c(C(=O)O)cn4c3c2OCC4)cc(C)n1.Cl` returned a concentration giving a half-maximal response (EC50) above 560 µM.

For `Cc1cc(-c2c(F)cc3c(=O)c(C(=O)O)cn4c3c2OCC4(C)C)cc(C)n1`, the EC50 was determined as 510 µM.

`CC[C@H]1COc2c(-c3cc(C)nc(C)c3)c(F)cc3c(=O)c(C(=O)O)cn1c23` displayed an EC50 of 420 µM.

`Cc1cc(-c2c(F)cc3c(=O)c(C(=O)O)cn4c3c2OC[C@H]4C)cc(C)n1`: the EC50 was above 540 µM.

For the compound `Cc1cc(-c2c(F)cc3c(=O)c(C(=O)O)cn4c3c2OCC[C@@H]4C)cc(C)n1`, the EC50 amounted to 150 µM.

With `Cc1cc(-c2c(F)cc3c(=O)c(C(=O)O)cn4c3c2OCC42CC2)cc(C)n1`, the EC50 is above 130 µM.

The compound `C[C@H]1COc2c(-c3ccncc3)c(F)cc3c(=O)c(C(=O)O)cn1c23` returned an EC50 of 57 µM.

In turn, `Cc1cc(-c2c(F)c(F)c3c(=O)c(C(=O)O)cn4c3c2OC[C@@H]4C)cc(C)n1` had an EC50 of 50 µM.

The compound `Cc1cc(-c2c(F)cc3c(=O)c(C(=O)O)cn4c3c2SC[C@H]4C)cc(C)n1` gave an EC50 above 260 µM.
